Laboratory results as given in US20120135064A1, “CONJUGATED NANODELIVERY VEHICLES” (Northeastern University, priority 2009, published 2012).

Assays:
[1] = test system: HPAF-II pancreatic tumor; assay: In vivo therapeutic study, subcutaneous HPAF-II pancreatic tumor model, tumor volume; set-up: species or system nude mice; settings: HPAF-II tumors; injections days 1, 4, 7, 10
Procedure: Tumors were grown by subcutaneously injecting 2×10^6 HPAF-II cells in 0.1 ml of cell culture media. Daily tumor volume measurements were taken using an electronic digital caliper (Control Company, Friendswood, Tex.). The equation a^2×b×0.52 was used to calculate the tumor volume, where ‘a’ and ‘b’ corresponded to the longer and shorter diameters, respectively. […] Animals received injections of the various formulations when the tumors reached a size of about 150 mm^3; the untreated control group received no injections. […] Day 1 injection was 18 μg of 2-methoxyestradiol for both PCL formulations. Day 4, 7, and 10 injections corresponded to 24 μg of 2-methoxyestradiol for both formulations. […] The end of the study was three days after the fourth injection, at which point the mice were anesthetized with ketamine/xylazine.

[2] = test system: Capan-1, HPAF-II, PANC-1, MS1-VEGF and HMEC-1 cells; assay: Bevacizumab cell toxicity assay (SRB); type: cell-based; settings: 24 h exposure; media containing or free of VEGF
Procedure: Cells were seeded at 1×10^4 cells/well in 1 ml volumes in a 48-well plate. The cells were incubated for 24 h in a 37° C. cell culture incubator set at CO2 5%. […] After 24 h of incubation the SRB assay was performed (as described in, e.g., Dandamudi et al., Biochim. Biophys. Acta 1768:427-438 (2007); Skehan et al., J. Natl. Cancer Inst. 82:1107-1112 (1990); and Kalra et al., Pharm. Res. 23:2809-2817 (2006)). Briefly, the plates were washed twice with 1 ml/well of 1×PBS. Then, […] trichloracetic acid 50% solution (TCA; […]) was added to each well and the plates were stored at 4° C. for 1 h. The plates were thoroughly washed with distilled H2O five times and then 200 μl of SRB 0.4% was added to each well The plates were stored at room temperature for 30 min and then washed 4-6 times thoroughly with acetic acid 1% to remove excess SRB and air dried. 1 ml of […] was added to each well to solubilize the SRB and fluorescence intensity was measured at excitation wavelength of 540/20 and emission wavelength of 590/20 nm using FLX 800 Fluorescence Microplate Reader (Biotech instruments Inc., Winooski, Vt.). All groups were compared with untreated cells for statistical analysis.

bevacizumab: anti-VEGF antibody bevacizumab (Avastin, Roche)
earliest day at which tumor response / significant benefit was seen [1]: 3 days
nontoxic concentration (maximum amount of antibody without altering the growth potential of the cells) [2]: 500 ng/mL
